Measured values published in publication PMC8162360, “Total synthesis of biseokeaniamides A–C and late-stage electrochemically-enabled peptide analogue synthesis” (Chemical Science, 2020).
Like-named read-outs stand apart in the source and are kept apart here. Non-standard residues stand in square brackets, D forms with d. Residues, ends and D or L forms follow the SMILES beside them. *: point of attachment. NMeF = CN[C@@H](Cc1ccccc1)C(=O)O; NMeV = CN[C@H](C(=O)O)C(C)C; Butyryl = CCCC(=O)*; X1 = CN(Cc1cccs1)*

Experiments:
[1] = cited from earlier work
Source text: Probing the electrochemical generation and reactivity of N,O-acetals | column: pKa (R–OH)[27,28] || The reactivity of the methanol-derived N,O-acetal 6a was examined using a Friedel–Crafts-type reaction with thiophene in the presence of TFA (2.0 equiv.), which serves to regenerate the N-acyliminium for nucleophilic attack. […] How ...

[2] = system: HeLa S3 cells; experiment: MTT 72 hour viability assay, HeLa S3 cells; format: cell-based
Description: (§1) Evaluation of biological activity
(§2) Cell Culture of A549 and HeLa S3 Cells
(§3) 1. A549 cells (ATCC® CCL-185) were cultured at 37 °C with 5% CO2 in DMEM/F12 (Ham)
(§4) medium (Gibco, CAT#11330-032) supplemented with 10% fetal bovine serum (FBS) (Sigma-
(§5) 2. HeLa S3 cells were cultured at 37 °C with 5% CO2 in F-12K nutrient mixture, Kaighn's
(§6) modification medium (Gibco, CAT#21127-022) supplemented with 10% fetal bovine serum
(§7) (FBS) (Sigma-Aldrich, CAT#F9423).
(§8) 3. To subculture cells, media was aspirated and cell monolayers were washed once with dPBS
(§9) (Gibco), and then detached using Trypsin-EDTA (0.25%, Gibco CAT#25200114), followed
(§10) by neutralisation with growth media. Quantitation of cell number was obtained using the Life
(§11) Technologies Countess II automated cell counter.
(§12) MTT 72 Hour Viability Assay
(§13) 1. A549 and HeLa S3 cells were seeded at 600 cells/well in 40 µL into a Corning clear 384-
(§14) well plate (CAT# 3701) using the Biotek EL406, and cultured overnight.
(§15) 2. Cells were then treated with various concentrations of compounds for 72 h. 0.2% DMSO
(§16) and 25 µM Etoposide (Sigma-Aldrich) were used as controls.
(§17) 3. 10 µL of MTT reagent (ThermoFisher, diluted to 2.5 mg/mL in DPBS) was then added to
(§18) cells and incubated at 37 °C for 1.5 h.
4. Plates were then centrifuged at 800 × g for 5 min and the supernatant flicked off. 25 µL of
isopropanol/HCl solution was then added to each well using the Biotek EL406 and the plates
5. Absorbance was then read at 570 nm using the PerkinElmer EnVision Multimode plate
6. Statistical Analysis: Results were normalised to the average blank value (media only
control), and then presented as a percentage of the control (0.2% DMSO (vehicle) treated cells)

[3] = system: A549 cells (ATCC CCL-185); format: cell-based; settings: 72 h
Description: as §1, §2, §3, §4, §5, §6, §7, §8, §9, §10, §11, §12, §13, §14, §15, §16, §17, §18
4. Plates were then centrifuged at 800 × g for 5 min and the supernatant flicked off. 25 µL of […]
5. Absorbance was then read at 570 nm using the PerkinElmer EnVision Multimode plate […]

[4] = pKa of the alcohol or carboxylic acid R-OH used in the electrolysis

Structure (SMILES)	pKa (R–OH) [1, 4]	IC50 ([2]; 72 h) [µM]	IC50 [3] [µM]	further results
OC(C(F)(F)F)C(F)(F)F [(CF3)2CH, hexafluoroisopropanol]	9.3			
OCC(F)(F)F [CF3CH2, trifluoroethanol]				pKa (R–OH) [1]: 12.5
O=C(O)C(Cl)(Cl)Cl [Cl3CCO]	0.85			
C=CCCN(C)C(=O)[C@@H](NC(=O)[C@H](CC(C)C)NC(=O)[C@H](Cc1ccccc1)NC(C)=O)C(C)C [Compound 19]		9.2	7.9	cytotoxicity compared with natural products 1a-1c [2]: enhanced cytotoxicity in relation to the natural products
CCCC(=O)N(C)[C@H](C(=O)N1CCC[C@H]1C(=O)N(C)[C@@H](Cc1ccccc1)C(=O)N[C@@H](CC(C)C)C(=O)N[C@H](C(=O)N(C)Cc1cccs1)C(C)C)C(C)C [Compound 21] (Butyryl-[NMeV]P[NMeF]LV-X1)		18.4	27.4	cytotoxicity compared with natural products 1a-1c ([2]; comparative HeLa cell viability assays, Fig. 1A, MTT, 72 h): enhanced cytotoxicity in relation to the natural products
CO [Me, methanol]	15.5			
